Measured values: patent US11464770B2, “Anticancer pharmaceutical composition” (NATIONAL CANCER CENTER, priority 2016, dated 2022)
Read-outs that look alike come from different tables or passages of the source.

Tests used:
[1] = test system: lung cancer cell lines (e.g. NCI-H23, NCI-H1229); experiment: Cell based assay, cell viability (CellTiter-Glo), lung cancer cell lines; details: Homo sapiens, 72 hours treatment, CellTiter-Glo
Method: (§1) Commercially available bladder cancer, prostate cancer, lung cancer, breast cancer, blood cancer, pancreatic cancer, colorectal cancer, brain cancer, neuroblastoma, melanoma, liver cancer, cervical carcinoma, ovarian cancer, renal cancer, and papilloma cell lines were each treated with trypsin-EDTA and cultured, followed by being seeded in each well of a 96 well plate. After 24 hours of treatment at constant temperature, the respective cells were treated with the candidate compound so that a final concentration became 0 to 2 μM. The treated cells were additionally cultured for 72 hours, and cell viability was measured by using an ATP detection method (CellTiter-Glo® Luminescent Cell Viability Assay, Promega).

brain cancer cell lines = experiment: Cell based assay, cell viability (CellTiter-Glo), brain cancer cell lines; details: Homo sapiens
Method: as §1, with “After 24 hours of treatment at constant temperature, the respective cells were treated with the candidate compound so that a final concentration became 0 to 2 μM.” left out

neuroblastoma cell lines = experiment: Cell based assay, cell viability (CellTiter-Glo), neuroblastoma cell lines; details: Homo sapiens; SH-SY5Y cell line
Method: as §1

[2] = A549 cells, read-out: IC50, lung cancer cell line A549
[3] = DMS 114 cells, read-out: IC50, lung cancer cell line DMS 114
[4] = NCI-H23 cells, read-out: IC50, lung cancer cell line NCI-H23
[5] = NCI-H460 cells, read-out: IC50, lung cancer cell line NCI-H460
[6] = NCI-H522 cells, read-out: IC50, lung cancer cell line NCI-H522
[7] = NCI-H1299 cells, read-out: IC50, lung cancer cell line NCI-H1299
[8] = NCI-H1437 cells, read-out: IC50, lung cancer cell line NCI-H1437
[9] = U138-MG, U-138 MG cell line, read-out: IC50, Brain cancer cell line U-138 MG
[10] = T98G cell line, read-out: IC50, Brain cancer cell line T98G
[11] = U-251 MG cell line, read-out: IC50, Brain cancer cell line U-251 MG

SMILES	IC50 [1, 2] [nM]	IC50 [1, 3] [nM]	IC50 [1, 4] [nM]	IC50 [1, 5] [nM]	IC50 [1, 6] [nM]	IC50 [1, 7] [nM]	IC50 [1, 8] [nM]	IC50 (brain cancer cell lines; [9]) [nM]	IC50 (brain cancer cell lines; [10]) [nM]	IC50 (brain cancer cell lines; [11]) [nM]	IC50 (neuroblastoma cell lines) [nM]	IC50 ([1]; MRC-5 cells, read-out: IC50) [nM]
CC(=O)c1c([S+]([O-])Cc2ccccc2)nc2c(Br)ccc(Cl)c2c1O (stereo not drawn) [Compound 4]	1970	> 2000	920	1650	> 2000	1400	> 2000	1810	> 10000	1220	> 2000	910
CC(=O)c1c([S+]([O-])Cc2ccc(Cl)cc2)[nH]c2c(Br)ccc(Cl)c2c1=O (stereo not drawn) [Compound 11, 3-acetyl-8-bromo-5-chloro-2-((4-chlorobenzyl)sulfinyl)quinolin-4(1H)-one]	> 2000	> 2000	1550	> 2000	> 2000	> 2000	> 10000	> 2000	> 10000	> 2000	> 2000	> 2000
CC(=O)c1c(Sc2ccccc2)[nH]c2c(Br)ccc(Cl)c2c1=O [Compound 12, 3-acetyl-8-bromo-5-chloro-2-(phenylthio)quinolin-4(1H)-one]	> 2000	> 2000	> 2000	> 2000	> 2000	> 2000	> 10000	> 10000	> 10000	> 2000	> 2000	> 2000
CC(=O)c1c([S+]([O-])c2ccccc2)[nH]c2c(Br)ccc(Cl)c2c1=O (stereo not drawn) [Compound 13, 3-acetyl-8-bromo-5-chloro-2-(phenylsulfinyl)quinolin-4(1H)-one]	> 2000	> 2000	> 2000	> 2000	> 2000	> 2000	> 10000	> 10000	> 10000	> 2000	> 2000	> 2000
COc1ccccc1Sc1[nH]c2c(Br)ccc(Cl)c2c(=O)c1C(C)=O [Compound 14, 3-acetyl-8-bromo-5-chloro-2-((2-methoxyphenyl)thio)quinolin-4(1H)-one]	> 2000	> 2000	> 2000	> 2000	> 2000	> 2000	> 10000	> 10000	> 10000	> 2000	> 2000	> 2000
COc1ccccc1[S+]([O-])c1[nH]c2c(Br)ccc(Cl)c2c(=O)c1C(C)=O (stereo not drawn) [Compound 15, 3-acetyl-8-bromo-5-chloro-2-((2-methoxyphenyl)sulfinyl)quinolin-4(1H)-one]	> 2000	> 2000	1560	> 2000	> 2000	> 2000	> 10000	> 2000	> 10000	> 2000	> 2000	> 2000
CC(=O)c1c(Sc2ccc(Br)cc2)[nH]c2c(Br)ccc(Cl)c2c1=O [Compound 16, 3-acetyl-8-bromo-2-((4-bromophenyl)thio)-5-chloroquinolin-4(1H)-one]	> 2000	> 2000	> 2000	> 2000	> 2000	> 2000	> 10000	> 10000	> 10000	> 2000	> 2000	> 2000
CC(=O)c1c([S+]([O-])c2ccc(Br)cc2)[nH]c2c(Br)ccc(Cl)c2c1=O (stereo not drawn) [Compound 17, 3-acetyl-8-bromo-2-((4-bromophenyl)sulfinyl)-5-chloroquinolin-4(1H)-one]	> 2000	> 2000	> 2000	> 2000	> 2000	> 2000	> 10000	> 10000	> 10000	> 2000	> 2000	> 2000
CSc1c(C(C)=O)c(=O)c2c(Cl)ccc(Br)c2n1C(C)=O [Compound 18, 1,1′-(8-bromo-5-chloro-2-(methylthio)-4-oxoquinoline-1,3(4H)-diyl)bis(ethan-1-one)]	> 2000	> 2000	> 2000	> 2000	> 2000	> 2000	> 10000	> 10000	> 10000	> 2000	> 2000	> 2000
CC(=O)c1c([S+](C)[O-])n(C(C)=O)c2c(Br)ccc(Cl)c2c1=O (stereo not drawn) [Compound 19, 1,1′-(8-bromo-5-chloro-2-(methylsulfinyl)-4-oxoquinoline-1,3(4H)-diyl)bis(ethan-1-one)]	> 2000	> 2000	> 2000	> 2000	> 2000	> 2000	> 10000	> 10000	> 10000	> 2000	> 2000	> 2000
CC(=O)c1c([S+]([O-])Cc2ccccc2)n(C(=O)c2ccc(Br)cc2)c2c(Br)ccc(Cl)c2c1=O (stereo not drawn) [Compound 20, 3-acetyl-2-(benzylsulfinyl)-8-bromo-1-(4-bromobenzoyl)-5-chloroquinolin-4(1H)-one]	> 2000	> 2000	1390	1580	> 2000	1580	> 2000	> 10000	> 10000	> 2000	> 2000	> 2000
CC(=O)c1c(S(C)(=O)=O)n(C(=O)c2ccc(Br)cc2)c2c(Br)ccc(Cl)c2c1=O [Compound 21, 3-acetyl-8-bromo-1-(4-bromobenzoyl)-5-chloro-2-(methylsulfonyl)quinolin-4(1H)-one]	> 2000	> 2000	> 2000	> 2000	> 2000	> 2000	> 10000	> 10000	> 10000	> 2000	> 2000	> 2000

The next lines start with results.

IC50 [1, 2] [nM]	IC50 [1, 3] [nM]	IC50 [1, 4] [nM]	IC50 [1, 5] [nM]	IC50 [1, 6] [nM]	IC50 [1, 7] [nM]	IC50 [1, 8] [nM]	IC50 (brain cancer cell lines; [9]) [nM]	IC50 (brain cancer cell lines; [10]) [nM]	IC50 (brain cancer cell lines; [11]) [nM]	IC50 (neuroblastoma cell lines) [nM]	SMILES	IC50 ([1]; MRC-5 cells, read-out: IC50) [nM]
> 2000	> 2000	1340	> 2000	> 2000	1880	> 10000	> 2000	> 10000	> 2000	> 2000	CC(=O)c1c([S+](C)[O-])[nH]c2c(Br)ccc(Cl)c2c1=O (stereo not drawn) [Compound 1, 3-acetyl-8-bromo-5-chloro-2-(methylsulfinyl)quinolin-4(1H)-one]	1340
> 2000	> 2000	> 2000	> 2000	> 2000	> 2000	> 10000	> 10000	> 10000	> 2000	> 2000	CSc1[nH]c2c(Br)ccc(Cl)c2c(=O)c1C(C)=O [Compound 2, 3-acetyl-8-bromo-5-chloro-2-(methylthio)quinolin-4(1H)-one]	> 2000
> 2000	> 2000	> 2000	> 2000	> 2000	> 2000	> 10000	> 10000	> 10000	> 2000	> 2000	CC(=O)c1c(SCc2ccccc2)[nH]c2c(Br)ccc(Cl)c2c1=O [Compound 3, 3-acetyl-2-(benzylthio)-8-bromo-5-chloroquinolin-4(1H)-one]	> 2000
> 2000	> 2000	> 2000	> 2000	> 2000	> 2000	> 10000	> 10000	> 10000	> 2000	> 2000	CSc1c(C(C)=O)c(=O)c2c(Cl)ccc(Br)c2n1C [Compound 5, 3-acetyl-8-bromo-5-chloro-1-methyl-2-(methylthio)quinolin-4(1H)-one]	> 2000
> 2000	> 2000	1310	> 2000	> 2000	1840	> 10000	> 2000	> 10000	> 2000	> 2000	CC(=O)c1c([S+](C)[O-])[nH]c2c(Cl)ccc(Cl)c2c1=O (stereo not drawn) [Compound 6, 3-acetyl-5,8-dichloro-2-(methylsulfinyl)quinolin-4(1H)-one]	> 2000
> 2000	> 2000	> 2000	> 2000	> 2000	> 2000	> 10000	> 10000	> 10000	> 2000	> 2000	CSc1c(C(C)=O)c(=O)c2cc(F)ccc2n1C [Compound 7, 3-acetyl-6-fluoro-1-methyl-2-(methylthio)quinolin-4(1H)-one]	> 2000
> 2000	> 2000	> 2000	> 2000	> 2000	> 2000	> 10000	> 10000	> 10000	> 2000	> 2000	CSc1[nH]c2ccc(F)cc2c(=O)c1C(C)=O [Compound 8, 1-(6-fluoro-4-hydroxy-2-(methylthio)quinolin-3-yl)ethan-1-one]	> 2000
> 2000	> 2000	900	> 2000	> 2000	1260	> 10000	1260	> 10000	> 2000	> 2000	CC(=O)c1c([S+](C)[O-])n(C(=O)c2ccc(Br)cc2)c2c(Br)ccc(Cl)c2c1=O (stereo not drawn) [Compound 9, 3-acetyl-8-bromo-1-(4-bromobenzoyl)-5-chloro-2-(methylsulfinyl)quinolin-4(1H)-one]	> 2000
> 2000	> 2000	> 2000	> 2000	> 2000	> 2000	> 10000	> 10000	> 10000	> 2000	> 2000	CC(=O)c1c(SCc2ccc(Cl)cc2)[nH]c2c(Br)ccc(Cl)c2c1=O [Compound 10, 3-acetyl-8-bromo-5-chloro-2-((4-chlorobenzyl)thio)quinolin-4(1H)-one]	> 2000
